Legend:
ACAT 2 = target: T1, ACAT 2 (Mus musculus, UniProt O88908); experiment: ACAT-inhibiting activity, mouse liver microsome membrane fraction, [14C]oleoyl-CoA; type: biochemical; conditions: for IC50: mouse liver microsome, 5 minutes at 37° C.; for Specific activity: (inhibitory activity of test compound)/(inhibitory activity of pyripyropene A): relative to pyripyropene A
T1 construct: The source of ACAT 2 enzyme used was a membrane fraction derived from mouse liver microsome; from tissue; host or cells: mouse liver (microsome fraction)
T1 sequence (O88908 1-525): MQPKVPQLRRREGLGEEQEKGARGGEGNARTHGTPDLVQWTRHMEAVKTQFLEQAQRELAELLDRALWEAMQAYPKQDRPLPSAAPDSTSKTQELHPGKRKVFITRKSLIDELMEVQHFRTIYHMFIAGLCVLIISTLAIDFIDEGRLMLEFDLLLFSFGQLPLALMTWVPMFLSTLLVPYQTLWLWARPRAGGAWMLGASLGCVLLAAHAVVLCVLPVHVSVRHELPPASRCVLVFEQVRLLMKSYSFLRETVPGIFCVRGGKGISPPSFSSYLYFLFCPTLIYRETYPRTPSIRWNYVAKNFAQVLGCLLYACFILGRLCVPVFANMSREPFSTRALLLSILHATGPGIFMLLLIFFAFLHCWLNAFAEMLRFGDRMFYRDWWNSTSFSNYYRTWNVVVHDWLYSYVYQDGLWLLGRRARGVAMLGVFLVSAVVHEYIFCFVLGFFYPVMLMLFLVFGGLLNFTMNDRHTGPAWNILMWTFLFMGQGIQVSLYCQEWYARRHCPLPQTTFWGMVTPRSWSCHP
Method in brief: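 Enzyme source: mouse liver microsomal membrane fraction (100000×g pellet) at 5 mg/ml protein in 50 mM Tris-HCl pH 7.8, 1 mM EDTA, 1 mM PMSF; substrate [14C]oleoyl-CoA. Chloroform-extracted lipids resolved by silica TLC in hexane/diethyl ether/acetic acid (70:30:1).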

[1] = system: apolipoprotein E-deficient mice; experiment: Total plasma cholesterol after 14 days of daily oral administration, high-fat feed; type: in vivo; conditions: for total plasma cholesterol at day 14 (% of day 0): day 0 taken as 100%, control 212.2%; for suppression of the increase in total plasma cholesterol compared with pyripyropene A: oral administration, apolipoprotein E-deficient mice
Description: Ten-week old apolipoprotein E-deficient mice (males, purchased from Jackson Laboratories) were kept under cycles of artificial light (day) for 12 hours and dark (night) for 12 hours by appropriately feeding a standard high-fat feed (D12079B, Research Diet). Before starting a test for each test compound, 100 μL of blood were collected from the caudal vein of each animal to measure the total cholesterol concentration in plasma using a commercially available kit (Determiner TC 555, Kyowa Medex). […] The test compound was orally administered daily at the start of the artificial light cycle of each day.
Blood was collected at the start of the artificial light cycle on day 14 of administration of the test compound to measure the total plasma cholesterol. The total plasma cholesterol before administration of the test compound (on day 0) was taken as 100%, and the percent increase in total plasma cholesterol on day 14 after administration of the test compound started was calculated.

| SMILES | IC50 (ACAT 2) | Specific activity: (inhibitory activity of test compound)/(inhibitory activity of pyripyropene A) (ACAT 2) | total plasma cholesterol at day 14 (% of day 0) ([1]; 1 mg/kg oral daily) | total plasma cholesterol at day 14 (% of day 0) ([1]; 10 mg/kg oral daily) | total plasma cholesterol at day 14 (% of day 0) ([1]; 50 mg/kg oral daily) | suppression of the increase in total plasma cholesterol compared with pyripyropene A [1] |
| --- | --- | --- | --- | --- | --- | --- |
| CC(=O)OCC1(C)C2C[C@H](OC(=O)c3ccc(C#N)cc3)[C@@]3(C)Oc4cc(-c5cccnc5)oc(=O)c4[C@H](O)C3[C@@]2(C)CC[C@@H]1OC(C)=O (some centres unmarked) [PRD 017, 7-p-cyanobenzoyl-7-deacetylpyripyropene A] | 10 to 100 nM | +++ (50 > specific activity > 10) | 161.6% | 149.7% | 132.5% | to a greater degree than did pyripyropene A |
| CC12COC(c3ccccc3)O[C@H]1CC[C@@]1(C)C2C[C@H](OC(=O)c2ccc(C#N)cc2)[C@@]2(C)Oc3cc(-c4cccnc4)oc(=O)c3[C@H](O)C12 (some centres unmarked) [PRD 041, 1,11-O-benzylidene-7-O-p-cyanobenzoyl-1,7,11-trideacetylpyripyropene A] | 10 to 100 nM | + (5 > specific activity > 1) | 102.4% | 88.2% | 101.1% | to a greater degree than did pyripyropene A |
| CC(C)C(=O)OCC1(C)C2C[C@H](OC(=O)c3ccc(C#N)cc3)[C@@]3(C)Oc4cc(-c5cccnc5)oc(=O)c4[C@H](O)C3[C@@]2(C)CC[C@@H]1OC(=O)C(C)C (some centres unmarked) [PRD 056, 7-O-p-cyanobenzoyl-1,11-di-(O-isobutyryl)-1,7,11-trideacetylpyripyropene A] | 10 to 100 nM | +++ (50 > specific activity > 10) | 148.0% | 114.8% | 86.1% | to a greater degree than did pyripyropene A |
| CC(=O)OCC1(C)C(OC(C)=O)CCC2(C)C1CC(OC(C)=O)C1(C)Oc3cc(-c4cccnc4)oc(=O)c3C(O)C21 (centres unmarked) [Pyripyropene A, reference compound] | – | – | – | 177.3% | 174.0% | – |

— patent US8519128B2, “Pyripyropene derivatives having an ACAT2-inhibiting activity” (The Kitasato Institute, priority 2007, dated 2013)
